Measured values as given in patent US20260207649A1, “LSD1 INHIBITOR AND PRMT6 INHIBITOR FOR USE IN THE TREATMENT OF A DISEASE ASSOCIATED WITH GAIN-OF-FUNCTION OF ANDROGEN RECEPTOR (AR) AND/OR WITH OVEREXPRESSION OF AN AR COACTIVATOR” (FONDAZIONE TELETHON ETS(30%), priority 2022, published 2026).
Where two headings read alike, the source gives them in different places.

What was measured:
AR24Q (human) = AR24Q (human) (UniProt P10275); assay: cell-based or functional assay
AR65Q (human) = AR65Q (human) (UniProt P10275); assay: cell-based or functional assay
polyQ-expanded AR = assay: Transcriptional (ARE-luciferase) assay in HEK293T cells expressing polyQ-expanded AR; type: cell-based, human; settings: AR65Q, DHT 10 nM, 16 h; for polyQ-expanded AR transactivation induced by DHT: mock-transfected, inhibitor 10 μM
Protocol: (§1) Cell Cultures, Transfection, and Transduction MN1^9 and HEK293T (ATCC) cells were cultured and plated in DMEM complete medium [Dulbecco's Modified Eagle Medium supplemented with 10% fetal bovine serum (FBS), 1% penicillin/streptomycin (pen/strep), and 1% L-glutamine] and LNCaP cells in RPMI complete medium (Gibco Roswell Park Memorial Institute supplemented with 10% FBS, 1% penicillin/streptomycin, and 1% L-glutamine). C2C12 cells were cultured and differentiated to myotubes. Cells were kept in a humidified incubator with 5% CO2 at 37° C. HEK293T cells were transfected with polyethyleneimine (PEI) linear MW 25,000 Da (Sigma-Aldrich) according to well dimensions. DNA: PEI (0.5% v/v) ratio was 1:1. At 24 hours after the transfection the DMEM complete medium supplemented with 10% FBS was changed with DMEM supplemented with charcoal stripped FBS and cells were treated with vehicle (ethanol) or 10 nM DHT and harvested for the different analysis 24 h after the treatment. For the pharmacological inhibition, we treated cells with the LSD1 catalytic inhibitor tranylcypromine (TCP) and the PRMT inhibitor adenosine dialdehyde (AdOx) both at a final concentration of 10 μM, instead for the selective LSD1 inhibitor SP-2509, we used it at a final concentration of 100 nm. MN-1 cells were transfected with Lipofectamine 2000 according to manufacturer instructions (Thermo Fisher). MN1 and LNCaP cells were transiently transduced with lentiviruses (MOI 30) or transfected with 2 μg DNA using Lipofectamine 2000 CD Transfection Reagent (ThermoFisher Scientific, 12566014). The following day, positively transfected cells were selected with […] Blasticidin (PanReacApplichem, A3784,0025). After 24 hours of selection or at 48 hours post-transduction, cells were induced with 10 nM dihydrotestosterone (DHT) in DMEM or RPMI medium supplemented with 10% charcoal-stripped FBS, 1% pen/strep, and 1% L-glutamine. The SBMA iPSCs were derived and differentiated. iPSCs were maintained on Matrigel (Corning, 354277) coated tissue culture dishes in E8 Flex medium (Thermo Fisher, A2858501). […]

AR100Q mice = settings: three times a week, from week 4
Protocol: A randomized cohort of male transgenic AR100Q mice and WT siblings was assigned to either control or treated group.
Phenelzine was administered at a dose of 30 mg/Kg in drinking water; three times a week; TCP was administered at a dose of 6 mg/Kg intraperitoneal, three times a week.
Mice were randomized and the operators were blind for genotype and treatment. The phenotype was analyzed by looking at muscle strength with grip strength test.

normal AR = assay: Transcriptional (ARE-luciferase) assay in HEK293T cells expressing normal AR; type: cell-based, human; settings: AR24Q, mock-transfected, DHT 10 nM, 16 h, inhibitor 10 μM
Protocol: Cell Cultures, Transfection, and Transduction MN1^9 and HEK293T (ATCC) cells were cultured and plated in DMEM complete medium [Dulbecco's Modified Eagle Medium supplemented with 10% fetal bovine serum (FBS), 1% penicillin/streptomycin (pen/strep), and 1% L-glutamine] and LNCaP cells in RPMI complete medium (Gibco Roswell Park Memorial Institute supplemented with 10% FBS, 1% penicillin/streptomycin, and 1% L-glutamine). C2C12 cells were cultured and differentiated to myotubes. Cells were kept in a humidified incubator with 5% CO2 at 37° C. HEK293T cells were transfected with polyethyleneimine (PEI) linear MW 25,000 Da (Sigma-Aldrich) according to well dimensions. DNA: PEI (0.5% v/v) ratio was 1:1. At 24 hours after the transfection the DMEM complete medium supplemented with 10% FBS was changed with DMEM supplemented with charcoal stripped FBS and cells were treated with vehicle (ethanol) or 10 nM DHT and harvested for the different analysis 24 h after the treatment. […] MN-1 cells were transfected with Lipofectamine 2000 according to manufacturer instructions (Thermo Fisher). […] The following day, positively transfected cells were selected with […] Blasticidin (PanReacApplichem, A3784,0025). […]

AR = assay: Transcriptional assay in HEK293T cells expressing AR24Q or AR65Q, with LSD1/PRMT6 overexpression or CRISPR silencing; type: cell-based, human; settings: 16 h, inhibitor 10 μM; for effect of overexpression of LSD1 on AR transactivation: AR24Q and AR65Q with LSD1, DHT 10 nM; for effect of overexpression of PRMT6 on AR transactivation: AR24Q and AR65Q with PRMT6, DHT 10 nM
Protocol: Cell Cultures, Transfection, and Transduction MN1^9 and HEK293T (ATCC) cells were cultured and plated in DMEM complete medium [Dulbecco's Modified Eagle Medium supplemented with 10% fetal bovine serum (FBS), 1% penicillin/streptomycin (pen/strep), and 1% L-glutamine] and LNCaP cells in RPMI complete medium (Gibco Roswell Park Memorial Institute supplemented with 10% FBS, 1% penicillin/streptomycin, and 1% L-glutamine). C2C12 cells were cultured and differentiated to myotubes. Cells were kept in a humidified incubator with 5% CO2 at 37° C. HEK293T cells were transfected with polyethyleneimine (PEI) linear MW 25,000 Da (Sigma-Aldrich) according to well dimensions. DNA: PEI (0.5% v/v) ratio was 1:1. At 24 hours after the transfection the DMEM complete medium supplemented with 10% FBS was changed with DMEM supplemented with charcoal stripped FBS and cells were treated with vehicle (ethanol) or 10 nM DHT and harvested for the different analysis 24 h after the treatment. […] MN-1 cells were transfected with Lipofectamine 2000 according to manufacturer instructions (Thermo Fisher). […] The following day, positively transfected cells were selected with […] Blasticidin (PanReacApplichem, A3784,0025). After 24 hours of selection or at 48 hours post-transduction, cells were induced with 10 nM dihydrotestosterone (DHT) in DMEM or RPMI medium supplemented with 10% charcoal-stripped FBS, 1% pen/strep, and 1% L-glutamine. […] For differentiation stably transfected iPSCs were induced with Neural Induction Medium (NIM) containing […] doxycycline and 10 nM R1881. After 48 hours of doxycycline treatment, motor neurons were dissociated with accutase to single cells and re-plated on PDL/Laminin coated surfaces in Neural Differentiation Medium (NDM) containing […] doxycycline and 10 nM R1881. On day 4, half of the cell culture medium was removed and replaced by Neuron Medium (NM) containing 10 nM R1881.
Luciferase assays were performed. In brief, HEK293T cells were transfected with vectors expressing non-expanded and polyglutamine-expanded AR together with vectors expressing the luciferase reporter gene under the control of a canonical androgen responsive element (ARE-Luc). To normalize data for transfection efficiency, the cells express Renilla reporter gene under the control of the timidine kinase (TK-Ren) transfected with ARE-Luc in a ratio of 1:10. Cells are treated with vehicle and DHT for 16 h and then processed for luciferase assay, as manufacturer's instructions (Promega).

Lsd1 = assay: Western blots of LSD1 in MN1 cells transfected with amiR vectors; type: cell-based, mouse
Protocol: as §1, with “L-glutamine.” for “L-glutamine. The SBMA iPSCs were derived and differentiated. iPSCs were maintained on Matrigel (Corning, 354277) coated tissue culture dishes in E8 Flex medium (Thermo Fisher, A2858501).”
(§2) The protein concentration was measured using the bicinchoninic acid (BCA) assay method (Pierce™ BCA® Protein Assay, Thermo Scientific). […]

Prmt6 = assay: Western blots of PRMT6 in MN1 cells transfected with amiR vectors; type: cell-based, mouse
Protocol: as §1, with “L-glutamine.” for “L-glutamine. The SBMA iPSCs were derived and differentiated. iPSCs were maintained on Matrigel (Corning, 354277) coated tissue culture dishes in E8 Flex medium (Thermo Fisher, A2858501).”
as §2

Question: What does the source list for “protein arginine methyltransferase 6 (PRMT6) (from UniProt Q96LA8 1-375)”?
Answer: AR transactivation (transcriptional assay, HEK293T cells) (AR24Q (human)): 3.1 fold; AR transactivation (transcriptional assay, HEK293T cells) (AR65Q (human)): 3.4 fold

Question: `C/C(=N\NC(=O)c1cccc(S(=O)(=O)N2CCOCC2)c1)c1cc(Cl)ccc1O` [SP-2509] was tested. Which “polyQ-expanded AR transactivation” value (polyQ-expanded AR; inhibitor 100 nM) did it give?
Answer: did not modify

Question: For `NNCCc1ccccc1` [Phenelzine, phenelzine], which “phenotype of AR100Q mice (grip strength normalized to body weight)” value (AR100Q mice; 30 mg/Kg in drinking water) is on record?
Answer: ameliorated

Question: With `Nc1ncnc2c1ncn2C(C=O)OC(C=O)CO` (stereo not shown) [AdOx, adenosine dialdehyde] as the molecule, how does the “polyQ-expanded AR transactivation induced by DHT” value (polyQ-expanded AR) read?
Answer: reduced

Question: What about the “normal AR transactivation induced by DHT” value (normal AR) of the same molecule?
Answer: reduced

Question: What about the “effect of overexpression of LSD1 on AR transactivation” value (AR) of the same molecule?
Answer: reduced

Question: What about the “effect of overexpression of PRMT6 on AR transactivation” value (AR) of the same molecule?
Answer: attenuated

Question: What does the source list for `N[C@@H]1C[C@H]1c1ccccc1` (racemic) [TCP, tranylcypromine]?
Answer: polyQ-expanded AR transactivation induced by DHT (polyQ-expanded AR): reduced; phenotype of AR100Q mice (grip strength normalized to body weight) (AR100Q mice; 6 mg/Kg intraperitoneal): ameliorated; normal AR transactivation induced by DHT (normal AR): reduced; effect of overexpression of LSD1 on AR transactivation (AR): reduced; effect of overexpression of PRMT6 on AR transactivation (AR): attenuated

B1: amiR-Lsd1 #2: artificial miRNA targeting mouse Lsd1, oligos SEQ ID NO: 155, 156 (nucleic acid)
chain 1: TGCTGTTTACTTGTTTGCTGACGACAGTTTTGGCCACTGACTGACTGTCGTCAAAACAAGTAAA
chain 2: CCTGTTTACTTGTTTTGACGACAGTCAGTCAGTGGCCAAAACTGTCGTCAGCAAACAAGTAAAC
modifications: expressed or natural sequence
Question: Which “silencing of Lsd1 expression” value (Lsd1) does the source give for B1 here?
Answer: 70%

B2: amiR-Prmt6 #7: artificial miRNA targeting mouse Prmt6, oligos SEQ ID NO: 151, 152 (nucleic acid)
chain 1: TGCTGTATTAGATTAGAGTGCTCGCGGTTTTGGCCACTGACTGACCGCGAGCACTAATCTAATA
chain 2: CCTGTATTAGATTAGTGCTCGCGGTCAGTCAGTGGCCAAAACCGCGAGCACTCTAATCTAATAC
modifications: expressed or natural sequence
Question: For B2, which “silencing of Prmt6” value (Prmt6) is on record?
Answer: ~ 50%

B3: amiR-Lsd1 #1: artificial miRNA targeting mouse Lsd1, oligos SEQ ID NO: 153, 154 (nucleic acid)
chain 1: TGCTGTTTCTCTGTATTCTACCTTGGGTTTTGGCCACTGACTGACCCAAGGTAATACAGAGAAA
chain 2: CCTGTTTCTCTGTATTACCTTGGGTCAGTCAGTGGCCAAAACCCAAGGTAGAATACAGAGAAAC
modifications: expressed or natural sequence
Question: How did the “silencing of Lsd1 expression” value (Lsd1) turn out when B3 was run?
Answer: 50%

B4: amiR-Prmt6 #2: artificial miRNA targeting mouse Prmt6, oligos SEQ ID NO: 141, 142 (nucleic acid)
chain 1: TGCTGCGGAGTAGCACTCGTAGTACAGTTTTGGCCACTGACTGACTGTACTACGTGCTACTCCG
chain 2: CCTGCGGAGTAGCACGTAGTACAGTCAGTCAGTGGCCAAAACTGTACTACGAGTGCTACTCCGC
modifications: expressed or natural sequence
Question: B4 was tested. Which “silencing of Prmt6” value (Prmt6) did it give?
Answer: ~ 50%

B5: amiR-Prmt6 #6: artificial miRNA targeting mouse Prmt6, oligos SEQ ID NO: 149, 150 (nucleic acid)
chain 1: TGCTGAATCAGACCATGTTGCCTTTCGTTTTGGCCACTGACTGACGAAAGGCAATGGTCTGATT
chain 2: CCTGAATCAGACCATTGCCTTTCGTCAGTCAGTGGCCAAAACGAAAGGCAACATGGTCTGATTC
modifications: expressed or natural sequence
Question: For B5, which “silencing of Prmt6” value (Prmt6) is on record?
Answer: ~ 50%

B6: amiR-Lsd1 #3: artificial miRNA targeting mouse Lsd1, oligos SEQ ID NO: 234, 235 (nucleic acid)
chain 1: TGCTGTTGATGAGAGGTATACATCACGTTTTGGCCACTGACTGACGTGATGTACCTCTCATCAA
chain 2: CCTGTTGATGAGAGGTACATCACGTCAGTCAGTGGCCAAAACGTGATGTATACCTCTCATCAAC
modifications: expressed or natural sequence
Question: B6 was tested. Which “silencing of Lsd1 expression” value (Lsd1) did it give?
Answer: 70%
